In US20040138199A1, “Benzoxazines and derivatives thereof as therapeutic agents” (priority 2002, published 2004) one finds IC50 data, which are given here for 24 compounds.

The target in this assay is T1, p101/p110γ protein (PI3Kγ) (Homo sapiens, UniProt P48736).
T1 construct: HA; made in house; host or cells: Spodoptera frugiperda (Sf9) cells, baculovirus coinfection
The experiment in a line: PI3Kγ In Vitro Kinase Assay. To be noted: purified recombinant p101/p110γ with G protein β1/γ2 subunits; 20 μM ATP, 25 μM PIP2; 20 minutes at room temperature; radioactive PIP3 readout. The assay is classed as biochemical. The protocol: Spodtera frugiperda cells, grown in ESF921 media, were coinfected with baculovirus expressing a glu-tagged […] and baculovirus expressing an HA-tagged p110γ, at a 3:1 ratio of p110 baculovirus to p110γ baculovirus. Sf9 cells were grown to 1×10^7 total cells/mL in 10L bioreactors and harvested 48-72 hours post infection. Samples of infected cells were then tested for expression of p101/p110γ PI3 kinase by immunoprecipitation and Western Blot analysis methods (see below).
To purify PI3Kγ, 4 volumes of room temperature hypotonic lysis buffer (1 mM MgCl2, 1 mM DTT, 5 mM EGTA, 1 mM Pefabloc, 0.5 μM aprotinin, […], 2 μM pepstatin, 5 μM E64, pH 8) per gram of cell paste, was poured onto frozen cell pellets with stirring, then lysed in a nitrogen “bomb” at 400 psi (599HC T316, Parr Instrument Co, Moline, Ill.). NaCl was added to 150 mM, and sodium cholate was added to 1% and mixed for another 45 minutes. The lysates were clarified by centrifugation for 25 minutes at 14,000 rpm. The lysates were then loaded over anti-glu-linked Protein-G Sepaharose beads (Covance Research Products, Richmond, Calif.) using 20 mL resin/50 g cell paste. The column was washed with 15 volumes of wash buffer (1 mM DTT, 0.2 mM EGTA, 1 mM Pefabloc, 0.5 μM aprotinin, 5 μM leupeptin, 2 μM pepstatin, 5 μM E64, 150 mM NaCl, 1% sodium cholate, pH 8). PI3Kγ was eluted with 6 column volumes of wash buffer that contain 100 μg/mL of a peptide that competes for binding of the glu tag. The column fractions with the eluted protein (determined by taking OD280 readings) were collected and dialyzed in 0.2 mM EGTA, 1 mM DTT, 1 mM Pefabloc, 5 μM leupeptin, 0.5% sodium cholate, 150 mM NaCl, and 50% glycerol, pH 8. The fractions were stored at −80° C. until further use.
Spodtera frugiperda cells were coinfected with baculovirus expressing a glu-tagged G protein β1 and baculovirus expressing a […] at a 1:1 ratio of glu-tagged G protein β1 baculovirus to G protein β2 baculovirus. Sf9 cells are grown in 10 L bioreactors and harvested 48-72 hours post infection. Samples of infected cells were tested for G protein β1/β2 expression by Western Blot analysis, as described below. Cell lysates were homogenized and loaded onto a column of glu-tagged beads as in Biological Example 1 and competed off the column with a glu peptide as described in Biological Example 1.
The inhibitory properties of the compounds in Table 1 were assayed in an in vitro PI3K assay. In a 96-well polypropylene plate, each well was spotted with 2 μL of 50 times the desired final concentration of compound in DMSO. Purified recombinant p101/p110γ protein (0.03 μg; ˜2.7 nM) and G protein β1/γ2 subunits (0.09 μg; −57.7 nM) for each reaction was combined in the assay buffer (30 mM HEPES, 100 mM NaCl, 1 mM EGTA, and 1 mM DTT). ATP and [γ-^32P-ATP] (0.09 μCi) were added to this mixture so that the final ATP concentration in the reaction was 20 μM. Lipid micelles were formed by sonicating phosphatidylinositol-4,5-diphosphate (PIP2), phosphatidylethanolamine (PE), and Na-cholate in the assay buffer for 10 minutes, adding MgCL2 and incubating on ice for 20 minutes, for final concentrations of 25 μM PIP2, 300 μM PE, 0.02% Na-cholate, and 10 mM MgCl2 in the reaction. The reactions were started by adding equal volumes lipid and enzyme mixture in a total volume of 50 μL, allowed to run for 20 minutes at room temperature, and stopped with 100 μL 75 mM H3PO4. The lipid product was transferred to a glass fiber filter plate and washed with 75 mM H3PO4 several times. The presence of radioactive lipid product (PIP3) was measured by adding Wallac Optiphase mix to each well and counting in a Wallac 1450 Trilux plate reader (PerkinElmer Life Sciences Inc., Boston, Mass. 02118). The IC50 for each compound tested is reported in μM in Table 1: […]

T1 sequence (P48736 whole entry, species assumed): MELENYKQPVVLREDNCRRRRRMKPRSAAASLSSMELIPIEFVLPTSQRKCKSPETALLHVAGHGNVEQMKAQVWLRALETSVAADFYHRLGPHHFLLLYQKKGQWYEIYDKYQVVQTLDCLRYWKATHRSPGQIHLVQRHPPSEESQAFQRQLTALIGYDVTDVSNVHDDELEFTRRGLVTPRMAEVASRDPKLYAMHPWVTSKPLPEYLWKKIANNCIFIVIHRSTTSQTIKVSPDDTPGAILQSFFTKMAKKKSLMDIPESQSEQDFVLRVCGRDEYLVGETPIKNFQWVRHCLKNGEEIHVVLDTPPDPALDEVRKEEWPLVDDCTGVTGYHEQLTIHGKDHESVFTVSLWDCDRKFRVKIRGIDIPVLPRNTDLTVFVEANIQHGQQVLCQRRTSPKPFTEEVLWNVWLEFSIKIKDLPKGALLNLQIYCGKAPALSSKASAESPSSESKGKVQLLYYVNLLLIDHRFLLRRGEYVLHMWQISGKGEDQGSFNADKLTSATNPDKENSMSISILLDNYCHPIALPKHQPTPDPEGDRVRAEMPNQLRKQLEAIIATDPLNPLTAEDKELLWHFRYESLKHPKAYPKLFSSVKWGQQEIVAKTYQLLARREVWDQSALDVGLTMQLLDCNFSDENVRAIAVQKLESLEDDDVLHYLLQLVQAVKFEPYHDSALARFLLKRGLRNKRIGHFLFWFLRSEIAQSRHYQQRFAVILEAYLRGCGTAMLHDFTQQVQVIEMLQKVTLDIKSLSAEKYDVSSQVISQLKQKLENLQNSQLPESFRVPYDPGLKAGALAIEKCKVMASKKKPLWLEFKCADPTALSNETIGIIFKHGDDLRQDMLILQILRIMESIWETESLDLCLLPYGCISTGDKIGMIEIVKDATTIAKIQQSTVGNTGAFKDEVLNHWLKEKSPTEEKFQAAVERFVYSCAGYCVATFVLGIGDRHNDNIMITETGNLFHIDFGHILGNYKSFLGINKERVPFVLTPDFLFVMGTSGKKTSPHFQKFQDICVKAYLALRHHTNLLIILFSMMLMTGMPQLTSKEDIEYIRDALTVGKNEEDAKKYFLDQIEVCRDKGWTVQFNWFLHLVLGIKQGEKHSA
T1 sequence (Q8WYR1 whole entry partner, species assumed): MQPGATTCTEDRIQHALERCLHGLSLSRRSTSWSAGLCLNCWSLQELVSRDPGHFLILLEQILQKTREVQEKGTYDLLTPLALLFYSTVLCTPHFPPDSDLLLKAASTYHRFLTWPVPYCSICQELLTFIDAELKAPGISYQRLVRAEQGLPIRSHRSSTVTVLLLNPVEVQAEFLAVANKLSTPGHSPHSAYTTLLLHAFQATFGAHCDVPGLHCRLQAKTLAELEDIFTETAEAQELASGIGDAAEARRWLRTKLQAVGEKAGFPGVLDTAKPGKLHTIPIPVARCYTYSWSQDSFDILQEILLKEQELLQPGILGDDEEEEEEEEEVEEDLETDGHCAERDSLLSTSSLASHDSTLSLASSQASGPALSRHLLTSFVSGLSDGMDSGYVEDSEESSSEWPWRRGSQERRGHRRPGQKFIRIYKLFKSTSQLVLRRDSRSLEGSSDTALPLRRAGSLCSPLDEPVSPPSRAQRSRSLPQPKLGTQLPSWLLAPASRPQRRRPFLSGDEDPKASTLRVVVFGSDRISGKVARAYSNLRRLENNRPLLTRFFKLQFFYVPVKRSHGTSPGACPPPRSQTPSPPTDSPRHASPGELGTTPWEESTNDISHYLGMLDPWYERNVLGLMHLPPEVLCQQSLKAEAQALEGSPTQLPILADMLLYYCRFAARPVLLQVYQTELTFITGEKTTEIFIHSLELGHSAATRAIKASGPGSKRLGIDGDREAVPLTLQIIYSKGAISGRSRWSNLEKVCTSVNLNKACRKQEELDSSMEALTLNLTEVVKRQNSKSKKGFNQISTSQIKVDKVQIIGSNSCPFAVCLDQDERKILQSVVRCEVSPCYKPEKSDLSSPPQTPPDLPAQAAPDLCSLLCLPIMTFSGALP

As for `O=C1NC(=S)SC1=Cc1ccc2c(c1)N(C(=O)CSc1ccccc1)CCO2` [Example 40, 5-[4-(2-Phenylsulfanyl-acetyl)-3,4-dihydro-2H-1,4-benzoxazin-6-ylmethylene]-2-thioxo-thiazolidin-4-one], the half-maximal inhibitory concentration (IC50) is 0.012 µM. As for `O=C1NC(=S)SC1=Cc1ccc2c(c1)N(C(=O)c1cccs1)CCO2` [Example 42, 5-[4-(Thiophene-2-carbonyl)-3,4-dihydro-2H-1,4-benzoxazin-6-ylmethylene]-2-thioxo-thiazolidin-4-one], the IC50 is 0.15 µM. To `O=C1NC(=S)SC1=Cc1ccc2c(c1)N(C(=O)c1cnc3ccccc3n1)CCO2` [Example 43, 5-[4-(Quinoxaline-2-carbonyl)-3,4-dihydro-2H-1,4-benzoxazin-6-ylmethylene]-2-thioxo-thiazolidin-4-one] belongs 0.565 µM; to `COC(=O)CCCCCCC(=O)N1CCOc2ccc(C=C3SC(=S)NC3=O)cc21` [Example 44, 8-Oxo-8-[6-(4-oxo-2-thioxo-thiazolidin-5-ylidenemethyl)-2,3-dihydro-1,4-benzoxazin-4-yl]-octanoic acid methyl ester], 0.018 µM. As for `O=C1NC(=S)SC1=Cc1ccc2c(c1)N(C(=O)c1cc(C(F)(F)F)cc(C(F)(F)F)c1)CCO2` [Example 45, 5-[4-(3,5-Bis-trifluoromethyl-benzoyl)-3,4-dihydro-2H-1,4-benzoxazin-6-ylmethylene]-2-thioxo-thiazolidin-4-one], the figure is 0.76 µM; as for `O=C1NC(=S)SC1=Cc1ccc2c(c1)N(C(=O)c1cc(F)cc(F)c1)CCO2` [Example 46, 5-[4-(3,5-Difluoro-benzoyl)-3,4-dihydro-2H-1,4-benzoxazin-6-ylmethylene]-2-thioxo-thiazolidin-4-one], 0.372 µM.

As for `O=C1NC(=S)SC1=Cc1ccc2c(c1)N(C(=O)COc1ccc(Cl)cc1)CCO2` [Example 47, 5-{4-[2-(4-Chloro-phenoxy)-acetyl]-3,4-dihydro-2H-1,4-benzoxazin-6-ylmethylene}-2-thioxo-thiazolidin-4-one], the IC50 worked out at 0.044 µM. As for `O=C1NC(=S)SC1=Cc1ccc2c(c1)N(C(=O)c1ccc3c(c1)OC(F)(F)O3)CCO2` [Example 48, 5-[4-(2,2-Difluoro-1,3-benzodioxole-5-carbonyl)-3,4-dihydro-2H-1,4-benzoxazin-6-ylmethylene]-2-thioxo-thiazolidin-4-one], the figure is 0.715 µM. As for `O=C1NC(=S)SC1=Cc1ccc2c(c1)N(C(=O)c1ccno1)CCO2` [Example 49, 5-[4-(Isoxazole-5-carbonyl)-3,4-dihydro-2H-1,4-benzoxazin-6-ylmethylene]-2-thioxo-thiazolidin-4-one], the figure is 0.245 µM; as for `COC(=O)c1ccc(OC(=O)N2CCOc3ccc(C=C4SC(=S)NC4=O)cc32)cc1` [Example 50, 6-(4-Oxo-2-thioxo-thiazolidin-5-ylidenemethyl)-2,3-dihydro-1,4-benzoxazine-4-carboxylic acid 4-methoxycarbonyl-phenyl ester], 0.007 µM; as for `O=C1NC(=S)SC1=Cc1ccc2c(c1)N(C(=O)c1cc(Cl)sc1Cl)CCO2` [Example 51, 5-[4-(2,5-Dichloro-thiophene-3-carbonyl)-3,4-dihydro-2H-1,4-benzoxazin-6-ylmethylene]-2-thioxo-thiazolidin-4-one], 0.86 µM. On to `Cc1cc(C(=O)N2CCOc3ccc(C=C4SC(=S)NC4=O)cc32)no1` [Example 52, 5-[4-(5-Methyl-isoxazole-3-carbonyl)-3,4-dihydro-2H-1,4-benzoxazin-6-ylmethylene]-2-thioxo-thiazolidin-4-one], for which the 50% inhibitory concentration (IC50) amounted to 0.115 µM. To `O=C1NC(=S)SC1=Cc1ccc2c(c1)N(C(=O)c1sccc1Cl)CCO2` [Example 53, 5-[4-(3-Chloro-thiophene-2-carbonyl)-3,4-dihydro-2H-1,4-benzoxazin-6-ylmethylene]-2-thioxo-thiazolidin-4-one] belongs 0.265 µM. To `O=C1NC(=S)SC1=Cc1ccc2c(c1)N(C(=O)c1ccccn1)CCO2` [Example 54, 5-[4-(Pyridine-2-carbonyl)-3,4-dihydro-2H-1,4-benzoxazin-6-ylmethylene]-2-thioxo-thiazolidin-4-one] belongs 0.445 µM; to `O=C1NC(=S)SC1=Cc1ccc2c(c1)N(C(=O)Nc1cccc(C(F)(F)F)c1)CCO2` [Example 55, 6-(4-Oxo-2-thioxo-thiazolidin-5-ylidenemethyl)-2,3-dihydro-1,4-benzoxazine-4-carboxylic acid (3-trifluoromethyl-phenyl)-amide], 0.005 µM. As for `O=C1NC(=S)SC1=Cc1ccc2c(c1)N(C(=O)Nc1ccccc1OC(F)(F)F)CCO2` [Example 56, 6-(4-Oxo-2-thioxo-thiazolidin-5-ylidenemethyl)-2,3-dihydro-1,4-benzoxazine-4-carboxylic acid (2-trifluoromethoxy-phenyl)-amide], the half-inhibitory concentration (IC50) was determined as 0.225 µM. With `Cc1ccc(NC(=O)N2CCOc3ccc(C=C4SC(=S)NC4=O)cc32)cc1` [Example 57, 6-(4-Oxo-2-thioxo-thiazolidin-5-ylidenemethyl)-2,3-dihydro-1,4-benzoxazine-4-carboxylic acid p-tolylamide], the 50% inhibitory concentration (IC50) was 0.095 µM. As for `O=C1NC(=S)SC1=Cc1ccc2c(c1)N(C(=O)Nc1ccccc1)CCO2` [Example 58, 6-(4-Oxo-2-thioxo-thiazolidin-5-ylidenemethyl)-2,3-dihydro-1,4-benzoxazine-4-carboxylic acid phenylamide], the figure is 0.032 µM. To `COc1cccc(NC(=O)N2CCOc3ccc(C=C4SC(=S)NC4=O)cc32)c1` [Example 59, 6-(4-Oxo-2-thioxo-thiazolidin-5-ylidenemethyl)-2,3-dihydro-1,4-benzoxazine-4-carboxylic acid (3-methoxy-phenyl)-amide] belongs 0.125 µM; to `O=C1NC(=S)SC1=Cc1ccc2c(c1)N(C(=O)c1ccc3nonc3c1)CCO2` [Example 61, 5-[4-(Benzofurazan-5-carbonyl)-3,4-dihydro-2H-1,4-benzoxazin-6-ylmethylene]-2-thioxo-thiazolidin-4-one], 0.56 µM; to `CCCCCCCCNC(=O)N1CCOc2ccc(C=C3SC(=S)NC3=O)cc21` [Example 62, 6-(4-Oxo-2-thioxo-thiazolidin-5-ylidenemethyl)-2,3-dihydro-1,4-benzoxazine-4-carboxylic acid octylamide], 4 µM. To `O=C1NC(=S)SC1=Cc1ccc2c(c1)N(C(=O)c1cc(Cl)cc(Cl)c1)CCO2` [Example 63, 5-[4-(3,5-Dichloro-benzoyl)-3,4-dihydro-2H-1,4-benzoxazin-6-ylmethylene]-2-thioxo-thiazolidin-4-one] belongs 0.145 µM; to `O=C1NC(=S)SC1=Cc1ccc2c(c1)N(C(=O)NCCc1cccs1)CCO2` [Example 64, 6-(4-Oxo-2-thioxo-thiazolidin-5-ylidenemethyl)-2,3-!dihydro-1,4-benzoxazine-4-carboxylic acid (2-thiophen-2-yl-ethyl)-amide], 4 µM; to `O=C1NC(=S)SC1=Cc1ccc2c(c1)N(C(=O)NCCc1ccccc1)CCO2` [Example 65, 6-(4-Oxo-2-thioxo-thiazolidin-5-ylidenemethyl)-2,3-dihydro-1,4-benzoxazine-4-carboxylic acid phenethyl-amide], 0.017 µM.

A word on the IC50: it is the concentration that gives 50% inhibition.
